According to PMC11240139, “Exploring the antitumor potential of novel quinoline derivatives via tubulin polymerization inhibition in breast cancer; design, synthesis and molecular docking” (RSC Advances, 2024):

Key:
Assay type in all cases: cell-based
CCRF-CEM (leukemia) = experiment: NCI-60 SRB cytotoxicity screen; settings: Homo sapiens, single dose 10 μM, read-out: growth inhibition (GI%)
K-562 (leukemia) = experiment: NCI-60 SRB cytotoxicity screen; settings: Homo sapiens; K-652 [sic], single dose 10 μM; read-out: growth inhibition (GI%)
MOLT-4 (leukemia) = experiment: NCI-60 SRB cytotoxicity screen; settings: Homo sapiens; MOLT-4, single dose 10 μM; read-out: growth inhibition (GI%)
RPMI-8226 (leukemia) = experiment: NCI-60 SRB cytotoxicity screen; settings: Homo sapiens; RPMI-8226, single dose 10 μM; read-out: growth inhibition (GI%)
[1] = tested on: A549/ATCC (non-small cell lung cancer); experiment: NCI-60 SRB cytotoxicity screen; settings: Homo sapiens, single dose 10 μM, read-out: growth inhibition (GI%)
[2] = tested on: HOP-62 (non-small cell lung cancer); experiment: NCI-60 SRB cytotoxicity screen; settings: Homo sapiens; HOP-62, single dose 10 μM; read-out: growth inhibition (GI%)
[3] = tested on: HOP-92 (non-small cell lung cancer); experiment: NCI-60 SRB cytotoxicity screen; settings: Homo sapiens; HOP-92, single dose 10 μM; read-out: growth inhibition (GI%)
[4] = tested on: NCI-H226 (non-small cell lung cancer); experiment: NCI-60 SRB cytotoxicity screen; settings: Homo sapiens; NCI-H226, single dose 10 μM; read-out: growth inhibition (GI%)
[5] = tested on: NCI-H522 (non-small cell lung cancer); experiment: NCI-60 SRB cytotoxicity screen; settings: Homo sapiens; NCI-H522, single dose 10 μM; read-out: growth inhibition (GI%)
COLO 205 (colon cancer) = experiment: NCI-60 SRB cytotoxicity screen; settings: Homo sapiens; COLO 205, single dose 10 μM; read-out: growth inhibition (GI%)
HCC-2998 (colon cancer) = experiment: NCI-60 SRB cytotoxicity screen; settings: Homo sapiens; HCC-2998, single dose 10 μM; read-out: growth inhibition (GI%)
SW-620 (colon cancer) = experiment: NCI-60 SRB cytotoxicity screen; settings: Homo sapiens; SW-620, single dose 10 μM; read-out: growth inhibition (GI%)
SF-268 (CNS cancer) = experiment: NCI-60 SRB cytotoxicity screen; settings: Homo sapiens; SF-268, single dose 10 μM; read-out: growth inhibition (GI%)
SF-295 (CNS cancer) = experiment: NCI-60 SRB cytotoxicity screen; settings: Homo sapiens; SF-295, single dose 10 μM; read-out: growth inhibition (GI%)
SNB-19 (CNS cancer) = experiment: NCI-60 SRB cytotoxicity screen; settings: Homo sapiens; SNB-19, single dose 10 μM; read-out: growth inhibition (GI%)
SNB-75 (CNS cancer) = experiment: NCI-60 SRB cytotoxicity screen; settings: Homo sapiens, SNB-75, SNB-75, single dose 10 μM; read-out: growth inhibition (GI%)
U251 (CNS cancer) = experiment: NCI-60 SRB cytotoxicity screen; settings: Homo sapiens, U-251; U251, single dose 10 μM; read-out: growth inhibition (GI%)
LOX IMVI (melanoma) = experiment: NCI-60 SRB cytotoxicity screen; settings: Homo sapiens, single dose 10 μM, read-out: growth inhibition (GI%)
MALME-3M (melanoma) = experiment: NCI-60 SRB cytotoxicity screen; settings: Homo sapiens, single dose 10 μM, read-out: growth inhibition (GI%)
M14 (melanoma) = experiment: NCI-60 SRB cytotoxicity screen; settings: Homo sapiens; M14, single dose 10 μM; read-out: growth inhibition (GI%)
MDA-MB-435 (melanoma) = experiment: NCI-60 SRB cytotoxicity screen; settings: Homo sapiens, MDA-MB-435, read-out: growth inhibition (GI%);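 also: growth inhibition in percent at a single 10 µM dose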
SK-MEL-2 (melanoma) = experiment: NCI-60 SRB cytotoxicity screen; settings: Homo sapiens; SK-MEL-2, single dose 10 μM; read-out: growth inhibition (GI%)
SK-MEL-5 (melanoma) = experiment: NCI-60 SRB cytotoxicity screen; settings: Homo sapiens; SK-MEL-5, single dose 10 μM; read-out: growth inhibition (GI%)
OVCAR-3 (ovarian cancer) = experiment: NCI-60 SRB cytotoxicity screen; settings: Homo sapiens; OVCAR-3, single dose 10 μM; read-out: growth inhibition (GI%)
OVCAR-5 (ovarian cancer) = experiment: NCI-60 SRB cytotoxicity screen; settings: Homo sapiens; OVCAR-5, single dose 10 μM; read-out: growth inhibition (GI%)
OVCAR-8 (ovarian cancer) = experiment: NCI-60 SRB cytotoxicity screen; settings: Homo sapiens; OVCAR-8, single dose 10 μM; read-out: growth inhibition (GI%)
[6] = tested on: NCI/ADR-RES (ovarian cancer); experiment: NCI-60 SRB cytotoxicity screen; settings: Homo sapiens, single dose 10 μM, read-out: growth inhibition (GI%)
786-0 (renal cancer) = experiment: NCI-60 SRB cytotoxicity screen; settings: Homo sapiens; 786-0, single dose 10 μM; read-out: growth inhibition (GI%)
ACHN (renal cancer) = experiment: NCI-60 SRB cytotoxicity screen; settings: Homo sapiens, single dose 10 μM, read-out: growth inhibition (GI%)
RXF 393 (renal cancer) = experiment: NCI-60 SRB cytotoxicity screen; settings: Homo sapiens; RXF 393, single dose 10 μM; read-out: growth inhibition (GI%)
SN12C (renal cancer) = experiment: NCI-60 SRB cytotoxicity screen; settings: Homo sapiens, single dose 10 μM, read-out: growth inhibition (GI%)
[7] = tested on: MDA-MB-231/ATCC (breast cancer); experiment: NCI-60 SRB cytotoxicity screen; settings: Homo sapiens, MDA-MB-231, read-out: growth inhibition (GI%);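 also: growth inhibition in percent at a single 10 µM dose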
HS 578T (breast cancer) = experiment: NCI-60 SRB cytotoxicity screen; settings: Homo sapiens, single dose 10 μM, read-out: growth inhibition (GI%)
BT-549 (breast cancer) = experiment: NCI-60 SRB cytotoxicity screen; settings: Homo sapiens; BT-549, single dose 10 μM; read-out: growth inhibition (GI%)
[8] = tested on: 60 cancer cell lines (NCI); experiment: NCI-60 single-dose screen, overall verdict over the panel; settings: single dose 10 μM, whole panel
Method in brief: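 Compounds were tested at a single 10^−5 M dose across the NCI 60 cell line panel, with cells preincubated 24 h before treatment. Viability was measured by TCA fixation and sulforhodamine B staining, absorbance 540 nm. % cytotoxicity = [1 − (sample/negative control absorbance)] × 100.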

Compound	inhibition at 10 µM (CCRF-CEM (leukemia))	inhibition at 10 µM (K-562 (leukemia))	inhibition at 10 µM (MOLT-4 (leukemia))	inhibition at 10 µM (RPMI-8226 (leukemia))	inhibition at 10 µM [1]	inhibition at 10 µM [2]	inhibition at 10 µM [3]	inhibition at 10 µM [4]	inhibition at 10 µM [5]	inhibition at 10 µM (COLO 205 (colon cancer))	inhibition at 10 µM (HCC-2998 (colon cancer))	inhibition at 10 µM (SW-620 (colon cancer))	inhibition at 10 µM (SF-268 (CNS cancer))	inhibition at 10 µM (SF-295 (CNS cancer))	inhibition at 10 µM (SNB-19 (CNS cancer))	inhibition at 10 µM (SNB-75 (CNS cancer))	inhibition at 10 µM (U251 (CNS cancer))	inhibition at 10 µM (LOX IMVI (melanoma))	inhibition at 10 µM (MALME-3M (melanoma))	inhibition at 10 µM (M14 (melanoma))	other results
CCc1cccc2cc(-c3cc(-c4ccc(Br)cc4)[nH]c(=O)c3C#N)c(Cl)nc12 [Compound 4e, 6-(4-Bromophenyl)-4-(2-chloro-8-ethylquinolin-3-yl)-2-oxo-1,2-dihydropyridine-3-carbonitrile]	< 10%	33.5%	< 10%	< 10%	< 10%	< 10%	< 10%	< 10%	< 10%	< 10%	< 10%	< 10%	< 10%	< 10%	< 10%	< 10%	< 10%	< 10%	< 10%	< 10%	inhibition at 10 µM (MDA-MB-435 (melanoma)): < 10%; inhibition at 10 µM (SK-MEL-2 (melanoma)): < 10%; inhibition at 10 µM (SK-MEL-5 (melanoma)): 13%; inhibition at 10 µM (OVCAR-3 (ovarian cancer)): < 10%; inhibition at 10 µM (OVCAR-5 (ovarian cancer)): < 10%; inhibition at 10 µM (OVCAR-8 (ovarian cancer)): < 10%; inhibition at 10 µM [6]: < 10%; inhibition at 10 µM (786-0 (renal cancer)): < 10%; inhibition at 10 µM (ACHN (renal cancer)): < 10%; inhibition at 10 µM (RXF 393 (renal cancer)): < 10%; inhibition at 10 µM (SN12C (renal cancer)): < 10%; inhibition at 10 µM [7]: < 10%; inhibition at 10 µM (HS 578T (breast cancer)): < 10%; inhibition at 10 µM (BT-549 (breast cancer)): 27.7%; cytotoxic activity over the cell lines (in words) [8]: mild cytotoxic activity
CCc1cccc2cc(-c3cc(-c4ccc(OC)cc4)[nH]c(=S)c3C#N)c(Cl)nc12 [Compound 5a, 4-(2-Chloro-8-ethylquinolin-3-yl)-6-(4-methoxyphenyl)-2-thioxo-1,2-dihydropyridine-3-carbonitrile]	< 10%	28.8%	12.7%	15.7%	< 10%	< 10%	36.2%	15.9%	19.6%	< 10%	< 10%	< 10%	23.1%	13.8%	13.2%	21.6%	< 10%	< 10%	< 10%	< 10%	inhibition at 10 µM (MDA-MB-435 (melanoma)): < 10%; inhibition at 10 µM (SK-MEL-2 (melanoma)): < 10%; inhibition at 10 µM (SK-MEL-5 (melanoma)): < 10%; inhibition at 10 µM (OVCAR-3 (ovarian cancer)): < 10%; inhibition at 10 µM (OVCAR-5 (ovarian cancer)): < 10%; inhibition at 10 µM (OVCAR-8 (ovarian cancer)): 10.1%; inhibition at 10 µM [6]: < 10%; inhibition at 10 µM (786-0 (renal cancer)): < 10%; inhibition at 10 µM (ACHN (renal cancer)): < 10%; inhibition at 10 µM (RXF 393 (renal cancer)): 20.6%; inhibition at 10 µM (SN12C (renal cancer)): 10.3%; inhibition at 10 µM [7]: 18.1%; inhibition at 10 µM (HS 578T (breast cancer)): 19.8%; inhibition at 10 µM (BT-549 (breast cancer)): 20.4%; cytotoxic activity over the cell lines (in words) [8]: slight cytotoxic activity
CCc1cccc2cc(-c3cc(-c4ccc(OC)c(OC)c4)[nH]c(=S)c3C#N)c(Cl)nc12 [Compound 5b, 4-(2-Chloro-8-ethylquinolin-3-yl)-6-(3,4-dimethoxyphenyl)-2-thioxo-1,2-dihydropyridine-3-carbonitrile]	28.8%	28%	44.3%	29.2%	19.7%	< 10%	47.4%	20.3%	< 10%	< 10%	< 10%	< 10%	32.2%	16.5%	22.6%	10.8%	13.7%	< 10%	< 10%	< 10%	inhibition at 10 µM (MDA-MB-435 (melanoma)): < 10%; inhibition at 10 µM (SK-MEL-2 (melanoma)): < 10%; inhibition at 10 µM (SK-MEL-5 (melanoma)): 21%; inhibition at 10 µM (OVCAR-3 (ovarian cancer)): < 10%; inhibition at 10 µM (OVCAR-5 (ovarian cancer)): < 10%; inhibition at 10 µM (OVCAR-8 (ovarian cancer)): 31.5%; inhibition at 10 µM [6]: 24.9%; inhibition at 10 µM (786-0 (renal cancer)): 18.7%; inhibition at 10 µM (ACHN (renal cancer)): 15.7%; inhibition at 10 µM (RXF 393 (renal cancer)): 24.6%; inhibition at 10 µM (SN12C (renal cancer)): 21.7%; inhibition at 10 µM [7]: 19.1%; inhibition at 10 µM (HS 578T (breast cancer)): 23.1%; inhibition at 10 µM (BT-549 (breast cancer)): 28.2%; cytotoxic activity over the cell lines (in words) [8]: slight cytotoxic activity
CCc1cccc2cc(-c3cc(-c4ccc(Br)cc4)[nH]c(=S)c3C#N)c(Cl)nc12 [Compound 5e, 6-(4-Bromophenyl)-4-(2-chloro-8-ethylquinolin-3-yl)-2-thioxo-1,2-dihydropyridine-3-carbonitrile]	< 10%	< 10%	< 10%	14.7%	< 10%	< 10%	< 10%	< 10%	< 10%	< 10%	< 10%	< 10%	< 10%	< 10%	< 10%	19.8%	< 10%	< 10%	< 10%	11%	inhibition at 10 µM (MDA-MB-435 (melanoma)): < 10%; inhibition at 10 µM (SK-MEL-2 (melanoma)): < 10%; inhibition at 10 µM (SK-MEL-5 (melanoma)): < 10%; inhibition at 10 µM (OVCAR-3 (ovarian cancer)): < 10%; inhibition at 10 µM (OVCAR-5 (ovarian cancer)): < 10%; inhibition at 10 µM (OVCAR-8 (ovarian cancer)): < 10%; inhibition at 10 µM [6]: < 10%; inhibition at 10 µM (786-0 (renal cancer)): < 10%; inhibition at 10 µM (ACHN (renal cancer)): < 10%; inhibition at 10 µM (RXF 393 (renal cancer)): < 10%; inhibition at 10 µM (SN12C (renal cancer)): < 10%; inhibition at 10 µM [7]: 12.9%; inhibition at 10 µM (HS 578T (breast cancer)): < 10%; inhibition at 10 µM (BT-549 (breast cancer)): < 10%; cytotoxic activity over the cell lines (in words) [8]: slight cytotoxic activity
